According to patent publication US20210330611A1, “THERAPY FOR NEUROLOGICAL DISEASES/DISORDERS” (priority 2020, published 2021):
Structures can show the parent of a compound that is named as a salt.

How the values were obtained:
primary rat microglia [1] = test: Cell toxicity (dead cells, size <150 μm2) in coated fibrin (cFib) assay; conditions: primary HTS, 10 μM, fibrin assay, dead cells size <150 μm2;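 further: share of dead cells sized under 150 µm2 at 10 µM in fibrin-stimulated microglia HTS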
[2] = test system: fibrin-induced microglia activation; test: Image-based assay of fibrin-induced microglia activation (HTS and dose response); type: cell-based, rat; conditions: primary HTS, 10 μM, fibrin-stimulated primary microglia; for inhibition at 10 µM: Rattus norvegicus, Microglia, read-out: Fibrin % inhibition
[3] = test system: fibrin- and LPS-induced microglia activation; test: cells; type: cell-based, rat; conditions: primary HTS, 10 μM
[4] = test system: LPS-induced microglia activation; test: Image-based assay of LPS-induced microglia activation (HTS and dose response); type: cell-based, rat; conditions: primary HTS, 10 μM, LPS-stimulated primary microglia; for inhibition at 10 µM: Rattus norvegicus, Microglia, read-out: LPS % inhibition
primary rat microglia [5] = test: Cell toxicity (dead cells, size <150 μm2) in LPS assay; conditions: primary HTS, 10 μM, LPS assay, dead cells size <150 μm2

SMILES | Fibrin % cell toxicity (primary rat microglia [1]) [%] | inhibition at 10 µM [2] [%] | Quadrant (FIG. 5b) [3] | inhibition at 10 µM [4] [%] | LPS % cell toxicity (primary rat microglia [5]) [%] | Fibrin % inhibition [2] [%] | LPS % inhibition [4] [%]
CCCCCCNC(=O)n1cc(F)c(=O)[nH]c1=O [Carmofur] | 0 | -13 | Q4 | 17 | 0 | – | –
O=c1[nH]c(=O)c2ccccc2o1 [Carsalam] | 0 | -7 | Q4 | 11 | 1 | – | –
CC(C)(C)NCC(O)COc1cccc2c1CCC(=O)N2 (stereo not drawn) [Carteolol] | 0 | 12 | Q4 | 7 | 0 | – | –
NS(=O)(=O)c1ccc(C(=O)O)cc1 [Carzenide] | 1 | -24 | Q4 | 14 | 0 | – | –
N[C@@H](C(=O)N[C@@H]1C(=O)N2C(C(=O)O)=C(Cl)CS[C@H]12)c1ccccc1 [Cefaclor] | 1 | -14 | Q4 | 19 | 0 | – | –
CC1=C(C(=O)O)N2C(=O)[C@@H](NC(=O)[C@H](N)c3ccc(O)cc3)[C@H]2SC1 [Cefadroxil] | 0 | 1 | Q4 | 3 | 0 | – | –
NC(=O)c1cc[n+](CC2=C(C(=O)[O-])N3C(=O)[C@@H](NC(=O)Cc4cccs4)[C@H]3SC2)cc1 [Cefalonium] | 1 | 9 | Q4 | 11 | 0 | – | –
CC(=O)OCC1=C(C(=O)O)N2C(=O)[C@@H](NC(=O)Cc3cccs3)[C@H]2SC1 [Cefalotin] | 1 | 1 | Q4 | 1 | 0 | – | –
Cn1nnnc1SCC1=C(C(=O)O)N2C(=O)[C@@H](NC(=O)[C@H](OC=O)c3ccccc3)[C@H]2SC1 [Cefamandole Nafate] | 0 | -3 | Q4 | 12 | 0 | – | –
Cn1nnnc1SCC1=C(C(=O)O)N2C(=O)[C@@H](NC(=O)[C@H](O)c3ccccc3)[C@H]2SC1 [Cefamandole Sodium] | 1 | -12 | Q4 | 16 | 0 | – | –
CC(=O)OCC1=C(C(=O)O)N2C(=O)[C@@H](NC(=O)CSc3ccncc3)[C@H]2SC1 [Cefapirin] | 0 | -26 | Q4 | 7 | 0 | – | –
Cc1nnc(SCC2=C(C(=O)O)N3C(=O)[C@@H](NC(=O)Cn4cnnn4)[C@H]3SC2)s1 [Cefazolin] | 1 | 0 | Q4 | 11 | 0 | – | –
C=CC1=C(C(=O)O)N2C(=O)[C@@H](NC(=O)/C(=N\O)c3csc(N)n3)[C@H]2SC1 [Cefdinir] | 1 | -9 | Q4 | 16 | 0 | – | –
CO/N=C(\C(=O)N[C@@H]1C(=O)N2C(C(=O)OCOC(=O)C(C)(C)C)=C(/C=C\c3scnc3C)CS[C@H]12)c1csc(N)n1 [Cefditorin Pivoxil] | 1 | – | Q4 | – | 1 | 2 | 21
CO/N=C(\C(=O)N[C@@H]1C(=O)N2C(C(=O)O)=C(C[N+]3(C)CCCC3)CS[C@H]12)c1csc(N)n1 [Cefepime Hydrochloride] | 1 | 7 | Q4 | 16 | 0 | – | –
